pIC50: −log10 of the molar value. One block for each compound: values may come before it.
Tests used:
[1] = tested on: uterine C3 expression (complement 3 mRNA; PR antagonist potential); test: C3 Rat Uterine Assay; type: in vivo, Sprague Dawley female rats; conditions: immature female rats, oral gavage, with R5020 0.1 mg/kg sc and ethynyl estradiol 50 ug/kg, 3 doses at 24 hour intervals
Protocol: Addition of a potential PR antagonist can then neutralize the blocking effect of the PR agonist, resulting in a measurable increase in uterine C3 expression.
Immature Sprague Dawley female rats (21 days old, each approximately 50 g in weight) are first administered the R5020 progestin subcutaneously in sesame oil vehicle at 0.1 mg/kg. The rats are then treated with ethynyl estradiol at a dose of 50 ug/kg plus a compound of interest at doses ranging from 1-30 mg/kg made up in 20% β-hydroxycyclodextran in water for an oral gavage volume of 0.3 ml. This dosing is done 3 times at 24 hour intervals. The control groups include rats treated with one of the following (administered and dosed as described above): 1) estrogen (E2) vehicle+R5020 vehicle, 2) E2+R5020 vehicle, 3) E2+R5020, and 4) E2+R5020+asoprisnil (comparator compound, 5 mg/kg). The rats are sacrificed by decapitation 2 hours after the final dose (50 hours total dosing time). Uteri are removed and cleaned of adipose tissue, and ½ (1 uterine horn) is flash-frozen in liquid nitrogen. The tissue is homogenized in TRIzol reagent using lysing matrix beads.
The RNA is isolated by chloroform extraction of the homogenized tissue, followed by isopropanol precipitation of the aqueous layer. The RNA is further purified by binding to a silica-gel based membrane or magnetic bead with a nucleic acid binding surface, and then eluted off with water. The RNA is converted to single strand cDNA via reverse transcriptase. These cDNA templates are analyzed by quantitative real-time PCR which multiplexes the C3 primer/probe set to an endogenous control gene. The resulting C3 data is normalized to the internal control. (Adapted from Lundeen, S. G. et al. J. Steroid Biochemistry and Molecular Biology, 2001, 78, 137-143.) Table 9 below provides data for representative compounds prepared according to the present invention.

[2] = tested on: uterine endometrial transformation; test: McPhail Assay; type: in vivo, New Zealand White Rabbits; conditions: rabbits; for McPhail Index** @ 10 mpk (Antagonist Mode): in combination with progesterone on days 7-12, antagonist mode; for McPhail Index** @ 30 mpk (Agonist Mode): compound alone on days 7-12, agonist mode
Protocol: The effects of progesterone receptor modulators on uterine endometrial transformation are evaluated in New Zealand White Rabbits (Harlan, 800-900 g) using the McPhail assay adapted from McPhail, MK. J Physiol, 1934:145-156. To evaluate antagonistic effects of compounds, the rabbits are treated sc with cyclodextrin-encapsulated 17-β-estradiol (Sigma, 10.52 ug/kg/day in 1 ml of saline) on days 1-6. The rabbits are then treated sc with progesterone (Sigma, 1.0 mg/kd/day in 1 ml of corn oil) in combination with compound of the present invention (in 15% Povidone K12, 10% Pluronic F68 (poloxamer 188) in deionized water (DIW): probe sonicated to mean<2 micron, 3 ml dose volume) on days 7-12. To evaluate agonist effects of compound, the rabbits are treated with either a compound of interest or progesterone alone on days 7-12. On day 13 the animals are sacrificed, uteri removed and fixed in zinc formalin (Richard-Allan Scientific). The fixed uteri are sectioned into 2-3 mm transverse slices and stained with haematoxylin and eosin. A total of six slices (a proximal, medial and distal section from each uterine horn) are evaluated histologically and the progestational effect is scored using the McPhail index. The McPhail test can be used to identify SPRMs.

[3] = target: T1, human progesterone receptor (PR) (Homo sapiens, UniProt P06401); test: PR CTF assay (co-transfected HEK293 cells, GRE-luciferase reporter); type: cell-based; conditions: antagonist mode, with 0.05-0.08 nM R5020, 24 h
T1 construct: expressed in transfected cells; host or cells: HEK293
T1 sequence (P06401 1-933): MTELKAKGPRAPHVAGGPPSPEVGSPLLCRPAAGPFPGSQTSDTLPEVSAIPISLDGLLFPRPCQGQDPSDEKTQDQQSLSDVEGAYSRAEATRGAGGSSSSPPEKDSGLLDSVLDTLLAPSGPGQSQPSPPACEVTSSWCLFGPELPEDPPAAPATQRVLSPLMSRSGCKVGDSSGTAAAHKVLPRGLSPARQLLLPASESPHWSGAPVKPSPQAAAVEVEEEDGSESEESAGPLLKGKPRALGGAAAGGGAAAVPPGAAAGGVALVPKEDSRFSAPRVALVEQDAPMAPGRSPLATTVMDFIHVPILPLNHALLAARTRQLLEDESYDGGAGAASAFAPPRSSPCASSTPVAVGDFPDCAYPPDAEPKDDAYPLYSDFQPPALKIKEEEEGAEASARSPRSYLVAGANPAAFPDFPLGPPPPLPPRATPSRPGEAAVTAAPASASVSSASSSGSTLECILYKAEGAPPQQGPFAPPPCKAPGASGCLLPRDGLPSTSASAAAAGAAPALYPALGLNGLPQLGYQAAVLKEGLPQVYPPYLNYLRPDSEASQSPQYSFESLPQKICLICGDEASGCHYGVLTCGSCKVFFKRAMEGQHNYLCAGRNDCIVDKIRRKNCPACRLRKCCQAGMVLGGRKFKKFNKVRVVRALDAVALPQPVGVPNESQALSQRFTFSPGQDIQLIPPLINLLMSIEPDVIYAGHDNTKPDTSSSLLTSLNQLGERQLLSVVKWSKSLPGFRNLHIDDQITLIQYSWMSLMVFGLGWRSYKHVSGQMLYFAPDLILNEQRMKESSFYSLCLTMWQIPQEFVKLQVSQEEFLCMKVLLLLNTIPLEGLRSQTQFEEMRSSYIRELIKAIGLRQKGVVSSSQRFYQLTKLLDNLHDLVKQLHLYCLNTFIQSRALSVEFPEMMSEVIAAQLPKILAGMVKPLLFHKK
Protocol: Human embryonic kidney HEK293 cells are co-transfected using Fugene. Briefly, the reporter plasmid pGL3 containing two copies of GRE (glucocorticoid response element ^5'[NT]3) and TK promoter upstream of the luciferase reporter cDNA is transfected with a plasmid constitutively expressing human progesterone receptor (PR), using viral CMV promoter. Cells are transfected in T225 cm^2 flasks in DMEM media with 5% charcoal-stripped Fetal Bovine Serum (FBS). After an overnight incubation, transfected cells are trypsinized, plated in 96 well dishes in DMEM media containing 5% charcoal-stripped FBS, incubated for 4 h and then exposed to various concentrations of test compounds in 1:4 dilution increments. In the antagonist assays low concentrations of agonist (0.05-0.08 nM of R5020) is also added to the media. After 24 h of incubation with compounds, cells are lysed and luciferase activity is determined. Data is fit to a 4 parameter-fit logistics curve to determine EC50 and IC50 values. The % efficacy is determined versus maximum stimulation obtained with 30 nM R5020. In the antagonist mode the % inhibition is determined verses the effects of 30 nM R5020 alone.

Compound: Cc1cc(-c2cn(C(C)C)c3cc(NS(C)(=O)=O)ccc23)ccc1C#N [Ex 49, N-[3-(4-Cyano-3-methyl-phenyl)-1-isopropyl-1H-indol-6-yl]-methanesulfonamide]
ED50 [1]: < 5 mg/kg

pIC50 [3]: ~7.93
Compound: CC(C)n1cc(-c2ccc(C#N)nc2)c2ccc(NS(C)(=O)=O)cc21 [Example 48, N-[3-(6-Cyano-pyridin-3-yl)-1-isopropyl-1H-indol-6-yl]-methanesulfonamide]
ED50 [1]: < 5 mg/kg
McPhail Index** @ 10 mpk (Antagonist Mode) [2]: + (+ <2)
McPhail Index** @ 30 mpk (Agonist Mode) [2]: + (+ <2)

Compound: CC(C)n1cc(-c2ccc(C#N)c(Cl)c2)c2ccc(NS(C)(=O)=O)cc21 [Example 50, N-[3-(4-Cyano-3-chloro-phenyl)-1-isopropyl-1H-indol-6-yl]-methanesulfonamide]
ED50 [1]: < 5 mg/kg
McPhail Index** @ 10 mpk (Antagonist Mode) [2]: + (+ <2)
McPhail Index** @ 30 mpk (Agonist Mode) [2]: + (+ <2)

Compound: CCCCn1cc(-c2ccc(C#N)c(F)c2)c2ccc(NS(C)(=O)=O)cc21 [Example 53, N-[1-Butyl-3-(4-cyano-3-fluoro-phenyl)-1H-indol-6-yl]-methanesulfonamide]
ED50 [1]: > 10 mg/kg
McPhail Index** @ 10 mpk (Antagonist Mode) [2]: +++ (+++ ≧3)
McPhail Index** @ 30 mpk (Agonist Mode) [2]: ++ (++ 2-3)

melting point: 189 to 191 °C
Compound: CC(C)n1cc(-c2cc(C#N)nn2C)c2ccc(NS(C)(=O)=O)cc21 [Example 121, N-[3-(5-Cyano-2-methyl-2H-pyrazol-3-yl)-1-isopropyl-1H-indol-6-yl]-methanesulfonamide]

melting point: 144 to 145 °C
Compound: CCn1nc(C#N)cc1-c1cn(C(C)C)c2cc(NS(C)(=O)=O)ccc12 [Example 124, N-[3-(5-Cyano-2-ethyl-2H-pyrazol-3-yl)-1-isopropyl-1H-indol-6-yl]-methanesulfonamide]

Compound: CC(C)n1cc(-c2cc(F)c(C#N)c(F)c2)c2ccc(NS(C)(=O)=O)cc21 [Example 170, N-[3-(4-Cyano-3,5-difluoro-phenyl)-1-isopropyl-1H-indol-6-yl]-methanesulfonamide]
ED50 [1]: < 5 mg/kg
McPhail Index** @ 10 mpk (Antagonist Mode) [2]: +++ (+++ ≧3)
McPhail Index** @ 30 mpk (Agonist Mode) [2]: +++ (+++ ≧3)

Compound: CC(C)n1cc(-c2ccc([N+](=O)[O-])cc2)c2ccc(NS(C)(=O)=O)cc21 [Example 197, N-[1-Isopropyl-3-(4-nitro-phenyl)-1H-indol-6-yl]-methanesulfonamide]
ED50 [1]: < 5 mg/kg
McPhail Index** @ 10 mpk (Antagonist Mode) [2]: ++ (++ 2-3)
McPhail Index** @ 30 mpk (Agonist Mode) [2]: + (+ <2)
